Assay [1] deals with T1, DNA topoisomerase 1 (Homo sapiens) (UniProt P11387).
T1 sequence (whole entry): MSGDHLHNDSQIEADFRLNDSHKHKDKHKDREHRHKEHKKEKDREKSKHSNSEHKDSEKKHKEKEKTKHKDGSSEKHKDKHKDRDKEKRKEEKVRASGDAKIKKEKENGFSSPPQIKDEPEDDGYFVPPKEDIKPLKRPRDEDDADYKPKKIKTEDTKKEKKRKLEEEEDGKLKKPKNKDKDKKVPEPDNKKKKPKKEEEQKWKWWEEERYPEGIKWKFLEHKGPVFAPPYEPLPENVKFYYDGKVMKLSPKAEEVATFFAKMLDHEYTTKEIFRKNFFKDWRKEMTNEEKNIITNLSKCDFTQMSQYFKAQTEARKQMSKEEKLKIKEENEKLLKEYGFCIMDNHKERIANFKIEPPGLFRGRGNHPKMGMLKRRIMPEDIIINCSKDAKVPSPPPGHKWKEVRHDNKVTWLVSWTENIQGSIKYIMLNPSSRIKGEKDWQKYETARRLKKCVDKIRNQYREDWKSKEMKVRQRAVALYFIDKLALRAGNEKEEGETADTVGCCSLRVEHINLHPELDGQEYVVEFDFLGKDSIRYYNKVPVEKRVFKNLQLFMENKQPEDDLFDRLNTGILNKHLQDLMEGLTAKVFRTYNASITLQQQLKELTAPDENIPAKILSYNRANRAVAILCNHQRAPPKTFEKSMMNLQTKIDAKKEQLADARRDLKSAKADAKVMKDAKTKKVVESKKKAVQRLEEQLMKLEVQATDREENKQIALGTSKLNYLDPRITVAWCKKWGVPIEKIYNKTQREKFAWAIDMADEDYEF
Briefly: Inhibition of topoisomerase 1.

In assay [2] the target is DNA topoisomerase 2-alpha (Homo sapiens) (UniProt P11388). Briefly: Inhibition of topoisomerase 2.

The structures appear in SMILES notation. The source made the active and inactive calls. The rule behind the calls is not given here.

Sequence of DNA topoisomerase 2-alpha (Homo sapiens) (P11388 whole entry): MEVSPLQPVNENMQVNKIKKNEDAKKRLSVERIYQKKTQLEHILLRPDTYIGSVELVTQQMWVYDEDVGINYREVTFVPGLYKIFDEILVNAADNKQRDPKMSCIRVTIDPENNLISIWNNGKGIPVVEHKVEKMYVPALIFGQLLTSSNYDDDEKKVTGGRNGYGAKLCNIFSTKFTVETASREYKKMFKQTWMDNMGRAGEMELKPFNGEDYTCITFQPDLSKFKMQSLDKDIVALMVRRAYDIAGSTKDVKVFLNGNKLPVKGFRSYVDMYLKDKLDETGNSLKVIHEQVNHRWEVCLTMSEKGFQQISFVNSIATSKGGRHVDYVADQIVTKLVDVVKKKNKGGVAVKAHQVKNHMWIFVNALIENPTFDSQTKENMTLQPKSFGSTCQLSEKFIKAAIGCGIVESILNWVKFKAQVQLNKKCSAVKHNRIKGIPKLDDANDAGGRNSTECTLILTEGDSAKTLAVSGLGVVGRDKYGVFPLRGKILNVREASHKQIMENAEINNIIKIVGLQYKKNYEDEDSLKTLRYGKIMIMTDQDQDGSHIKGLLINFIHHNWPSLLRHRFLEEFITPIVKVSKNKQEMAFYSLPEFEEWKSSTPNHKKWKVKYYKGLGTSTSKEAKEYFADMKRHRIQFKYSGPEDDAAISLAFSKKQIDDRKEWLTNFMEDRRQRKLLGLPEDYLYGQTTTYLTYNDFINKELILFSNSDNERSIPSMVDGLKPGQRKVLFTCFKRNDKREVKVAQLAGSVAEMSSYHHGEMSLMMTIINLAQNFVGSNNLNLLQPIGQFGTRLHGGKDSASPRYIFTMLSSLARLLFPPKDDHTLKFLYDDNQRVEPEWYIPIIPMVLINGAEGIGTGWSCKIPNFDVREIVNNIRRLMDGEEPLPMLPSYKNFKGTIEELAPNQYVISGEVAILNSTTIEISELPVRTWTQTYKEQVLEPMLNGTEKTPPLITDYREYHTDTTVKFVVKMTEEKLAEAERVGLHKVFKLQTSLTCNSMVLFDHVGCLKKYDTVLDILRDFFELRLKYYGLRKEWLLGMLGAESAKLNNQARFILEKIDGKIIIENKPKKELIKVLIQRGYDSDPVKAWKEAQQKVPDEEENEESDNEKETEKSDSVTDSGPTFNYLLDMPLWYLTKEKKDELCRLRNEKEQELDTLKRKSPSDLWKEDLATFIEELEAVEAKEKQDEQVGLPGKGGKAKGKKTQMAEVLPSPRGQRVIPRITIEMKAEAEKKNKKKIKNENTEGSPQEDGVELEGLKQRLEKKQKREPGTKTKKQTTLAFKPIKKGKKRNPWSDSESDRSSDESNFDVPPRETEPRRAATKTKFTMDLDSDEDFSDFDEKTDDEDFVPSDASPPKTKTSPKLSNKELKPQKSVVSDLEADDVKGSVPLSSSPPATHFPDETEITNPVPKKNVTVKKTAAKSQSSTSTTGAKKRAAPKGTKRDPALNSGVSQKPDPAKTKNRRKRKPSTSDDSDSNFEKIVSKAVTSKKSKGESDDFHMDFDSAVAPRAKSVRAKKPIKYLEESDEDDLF

With `CN(C)CCn1c(=O)c2c3oc4ccccc4oc3c3[nH]c4ccc(O)cc4c3c2c1=O`, the inhibition result in assay [1] and in assay [2] was “inactive” in each case.

Values taken from ChEMBL document CHEMBL1208688, “Synthesis and biological evaluation of novel benzodioxinocarbazoles (BDCZs) as potential anticancer agents” (Bioorg Med Chem Lett, 2010).
